The source of these data is paper PMC11051419, “Structural Insights into the Marine Alkaloid Discorhabdin G as a Scaffold towards New Acetylcholinesterase Inhibitors” (Marine Drugs, 2024).

Like-named read-outs stand apart in the source and are kept apart here.

Series [1] concerns the target T1, horse serum butyrylcholinesterase (BChE) (Equus caballus, UniProt P81908).
T1 construct: human recombinant AChE (hAChE), and horse serum BChE; purchased Sigma-Aldrich; host or cells: horse serum
In words: Inhibition of horse serum butyrylcholinesterase (modified Ellman method). It counts as biochemical. The settings on record: for IC50: Ellman method, pH 7.4, 25 °C, 3 as acetate salt; for type of inhibition against BChE: kinetic analysis, Dixon plot (Figure S4). On the procedure: (§1) The inhibition of cholinesterase activity was determined using a modification of the Ellman method, which was adapted for microtiter plates. Stock solutions of 3, 7, and 8 (2 mg/mL) were prepared in pure EtOH. […] Stock solutions of the potential inhibitors and the positive controls were added to the microtiter plate wells and progressively diluted in 100 mM potassium phosphate buffer (pH 7.4) to a final volume of 50 μL. Then, 100 μL acetylthiocholine chloride (1 mM) and 5,5′-dithiobis-2-nitrobenzoic acid (0.5 mM) in 100 mM potassium phosphate buffer (pH 7.4) was added into the microtiter plate wells. The cholinesterases that were used (eeAChE, hAChE, and BChE; all from Sigma-Aldrich, St. Louis, MO, USA) were dissolved in 100 mM potassium phosphate buffer (pH 7.4) to a final concentration of 0.0075 U/mL. Each cholinesterase solution (50 μL) was added into the microtiter plate wells to start the reaction, which was followed spectrophotometrically at 405 nm at 25 °C over 5 min using a kinetic microplate reader (Dynex Technologies Inc., Chantilly, VA, USA). Blank reactions without inhibitors were run with the appropriate dilutions of EtOH, and the readings were corrected according to the corresponding blanks. Each measurement was repeated at least three times. […] The data were analyzed using the OriginPro software (OriginPro 2021 (9.8), OriginLab Corporation, Northampton, MA, USA).
On the technique in general: DTNB colorimetry detects thiols as they appear.

Series [2] addresses T2, electric eel acetylcholinesterase (eeAChE) (Electrophorus electricus, UniProt O42275).
T2 construct: purchased Sigma-Aldrich
Nature of the series: Inhibition of electric eel acetylcholinesterase (modified Ellman method). It counts as biochemical. The settings on record: for Ki: Dixon plot, substrate 0.125, 0.25, 0.5 mM; for Ki / IC50: 3 as acetate salt; for IC50: Ellman method, pH 7.4, 25 °C; for type of inhibition against eeAChE: kinetic analysis, Dixon plot (Figure S4). On the procedure: as §1

Series [3] deals with T3, human recombinant acetylcholinesterase (hAChE) (Homo sapiens, UniProt P22303).
T3 construct: purchased Sigma-Aldrich
Nature of the series: Inhibition of human recombinant acetylcholinesterase (modified Ellman method). It counts as biochemical. The following applies: for Ki: Dixon plot, substrate 0.125, 0.25, 0.5 mM; for Ki / IC50: 3 as acetate salt; for IC50: Ellman method, pH 7.4, 25 °C; for type of inhibition against hAChE: kinetic analysis, Dixon plot (Figure S4). On the procedure:
as §1

Series [4] deals with T1, horse serum butyrylcholinesterase (BChE). The settings on record: cited from earlier work.
Series [5] deals with T2, electric eel acetylcholinesterase (eeAChE). The settings on record: cited from earlier work.
The test system of series [6] is neuromuscular transmission or skeletal muscle function. The following applies: electrophysiological study; cited from earlier work.
For series [7], the target named is T3, human recombinant acetylcholinesterase (hAChE). The settings on record: cited from earlier work.
Where [8] appears, read: discorhabdin G as trifluoroacetate (TFA) salt, ref Botić et al. [5].

T1 sequence (P81908 whole entry): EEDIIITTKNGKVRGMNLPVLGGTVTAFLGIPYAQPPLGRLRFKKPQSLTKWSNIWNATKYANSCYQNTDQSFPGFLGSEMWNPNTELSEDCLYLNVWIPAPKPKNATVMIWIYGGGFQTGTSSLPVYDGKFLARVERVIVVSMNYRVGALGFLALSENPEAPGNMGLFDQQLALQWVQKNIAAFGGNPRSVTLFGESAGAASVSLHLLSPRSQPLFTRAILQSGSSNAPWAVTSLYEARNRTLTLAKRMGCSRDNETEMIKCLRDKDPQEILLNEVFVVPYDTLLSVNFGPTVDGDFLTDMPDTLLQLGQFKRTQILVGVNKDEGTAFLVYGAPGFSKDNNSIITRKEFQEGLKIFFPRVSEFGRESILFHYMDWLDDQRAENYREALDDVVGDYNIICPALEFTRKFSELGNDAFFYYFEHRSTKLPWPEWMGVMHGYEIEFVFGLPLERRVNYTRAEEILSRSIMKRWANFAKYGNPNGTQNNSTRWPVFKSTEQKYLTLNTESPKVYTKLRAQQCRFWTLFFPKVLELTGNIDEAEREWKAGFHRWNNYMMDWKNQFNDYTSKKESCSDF
T3 sequence (P22303 32-614): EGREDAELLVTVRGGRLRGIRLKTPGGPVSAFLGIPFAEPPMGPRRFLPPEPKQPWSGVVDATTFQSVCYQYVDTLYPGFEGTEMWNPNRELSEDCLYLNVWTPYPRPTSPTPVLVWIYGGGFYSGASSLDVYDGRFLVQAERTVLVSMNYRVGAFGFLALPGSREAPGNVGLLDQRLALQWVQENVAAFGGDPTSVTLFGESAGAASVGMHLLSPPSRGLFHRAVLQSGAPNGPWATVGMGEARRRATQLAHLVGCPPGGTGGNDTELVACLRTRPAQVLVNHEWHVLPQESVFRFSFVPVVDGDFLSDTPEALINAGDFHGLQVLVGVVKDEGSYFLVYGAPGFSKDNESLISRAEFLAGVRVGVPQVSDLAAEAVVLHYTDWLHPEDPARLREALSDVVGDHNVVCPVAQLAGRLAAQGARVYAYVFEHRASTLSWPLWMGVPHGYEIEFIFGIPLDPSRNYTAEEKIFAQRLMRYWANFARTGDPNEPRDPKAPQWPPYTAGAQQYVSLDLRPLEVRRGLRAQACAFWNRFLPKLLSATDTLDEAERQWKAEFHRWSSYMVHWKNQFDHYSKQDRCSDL
T2 sequence (O42275 24-633): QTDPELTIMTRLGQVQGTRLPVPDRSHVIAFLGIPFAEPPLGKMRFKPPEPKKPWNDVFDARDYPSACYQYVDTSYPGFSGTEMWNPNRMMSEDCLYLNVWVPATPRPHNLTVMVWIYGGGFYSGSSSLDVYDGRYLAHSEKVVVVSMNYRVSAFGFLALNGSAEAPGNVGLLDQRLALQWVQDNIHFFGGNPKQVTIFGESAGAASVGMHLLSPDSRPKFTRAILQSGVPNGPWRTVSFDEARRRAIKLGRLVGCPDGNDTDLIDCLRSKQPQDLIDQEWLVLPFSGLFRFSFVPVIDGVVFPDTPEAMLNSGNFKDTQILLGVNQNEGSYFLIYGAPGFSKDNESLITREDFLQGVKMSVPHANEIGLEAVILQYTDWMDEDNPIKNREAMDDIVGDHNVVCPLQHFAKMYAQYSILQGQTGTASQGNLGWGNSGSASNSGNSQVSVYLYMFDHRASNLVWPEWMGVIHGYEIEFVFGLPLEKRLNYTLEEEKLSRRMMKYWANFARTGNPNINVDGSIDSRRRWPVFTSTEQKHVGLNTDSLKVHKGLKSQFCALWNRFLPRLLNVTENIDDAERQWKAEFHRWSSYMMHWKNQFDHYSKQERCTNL

What is called IC50 is the midpoint of a concentration-inhibition curve. The term Ki denotes the dissociation constant of the complex between target and ligand, obtained from inhibition or displacement. Consider `Cc1nc2c3n1CCN=C3c1ccccc1C2=O` [Compound 3, 5-methyl-2H-benzo[h]imidazo[1,5,4-de]quinoxalin-7(3H)-one], for which, in series [1], the IC50 is > 400 µM and the “type of inhibition against BChE” value was “reversible competitive”. Moreover, in series [2], the Ki worked out at 7.3 µM, the IC50 turned out to be 13.5 µM and the “type of inhibition against eeAChE” value is “reversible competitive”. Moreover, in series [3], the Ki is 5.8 µM, the IC50 was 16.9 µM and the “type of inhibition against hAChE” value is listed as “reversible competitive”.
The compound `Cc1nc2c(o1)C(=O)c1ccccc1C2=O` [Compound 7, 2-methylnaphtho[2,3-d]oxazole-4,9-dione] gave a Ki in series [1] (Dixon plot, substrate 0.125, 0.25, 0.5 mM) of 50 µM. For the same compound, in series [1], the IC50 was determined as 145 µM and the “type of inhibition against BChE” value was “reversible competitive”. Besides, in series [2], the Ki came to 65 µM, the half-inhibitory concentration (IC50) amounted to 188 µM and the “type of inhibition against eeAChE” value is reported as “reversible competitive”. For the same compound, in series [3], the inhibition constant Ki was 50 µM, the IC50 amounted to 234 µM and the “type of inhibition against hAChE” value is “reversible competitive”.
For the compound `CC(=O)NC1=C2NCCN=C2c2ccccc2C1=O` [Compound 8, N-(6-oxo-2,3,4,6-tetrahydrobenzo[f]quinoxalin-5-yl)acetamide], the IC50 in series [1], in series [2] and in series [3] was > 400 µM in each case.
Take `CN(C)C(=O)Oc1cccc([N+](C)(C)C)c1` [Neostigmine methylsulfate, reference compound]: the IC50 in series [1] amounted to 83.7 µM; in series [2], 6 µM.
Turning to discorhabdin G [Compound 1], the IC50 is 7 µM in series [4] (setting [8]), 1.3 µM in series [5] (setting [8]) and 116 µM in series [7] (setting [8]). Also, the Ki in series [4] (setting [8]) was 5 µM; in series [5] (setting [8]), 1.6 µM; in series [7] (setting [8]), 56.2 µM. In addition, the “type of inhibition against BChE” value in series [4] (previously observed) is listed as “reversible competitive”. Further, in series [5] (previously observed), the “type of inhibition against eeAChE” value is “reversible competitive”. In series [6], the “adverse effects on neuromuscular transmission or skeletal muscle function” value is “no adverse effects”. Besides, the “type of inhibition against hAChE” value in series [7] (previously observed) is “reversible competitive”.
